Among the data in patent publication EP4624465A1, “COMPOUND SERVING AS DDR1 KINASE INHIBITOR, AND MEDICINE” (Nippon Shinyaku Co., Ltd., priority 2022, dated 2024) are IC50 values, retold here.

In general, IC50 refers to the midpoint of a concentration-inhibition curve.

The target of assay [1] is T1, DDR1 kinase (Homo sapiens, UniProt Q08345). Put plainly: Evaluation of DDR1 kinase inhibition in DDR1-expressing U2OS cells (type I collagen stimulation, PathHunter detection). Type of assay: cell-based. Details: host or cells: U2OS. Particulars: type I collagen 50 µg/mL stimulation, duplicate, read-out: DDR-1 IC50. As for the experimental part: The solution was further diluted in an E-MEM medium (Fujifilm Wako Pure Chemicals, 051-07615) containing 10% fetal bovine serum (FBS, Gibco, 10270106) to 60000, 6000, 600, 60, 6, and 0.6 nM to prepare test substance solutions. 2. […] On the following day, after the plate was left at room temperature for 1 hour, a detection solution was added to the wells at […] according to the handling instructions for the PathHunter® Detection Kit (DiscoverX, 93-0001), and then incubated at room temperature for 2 hours. After the incubation, a luminescence intensity was measured by Envision (Perkin-Elmer). Tests were performed in duplicate. 3.
Target sequence in this assay (Q08345 19-913): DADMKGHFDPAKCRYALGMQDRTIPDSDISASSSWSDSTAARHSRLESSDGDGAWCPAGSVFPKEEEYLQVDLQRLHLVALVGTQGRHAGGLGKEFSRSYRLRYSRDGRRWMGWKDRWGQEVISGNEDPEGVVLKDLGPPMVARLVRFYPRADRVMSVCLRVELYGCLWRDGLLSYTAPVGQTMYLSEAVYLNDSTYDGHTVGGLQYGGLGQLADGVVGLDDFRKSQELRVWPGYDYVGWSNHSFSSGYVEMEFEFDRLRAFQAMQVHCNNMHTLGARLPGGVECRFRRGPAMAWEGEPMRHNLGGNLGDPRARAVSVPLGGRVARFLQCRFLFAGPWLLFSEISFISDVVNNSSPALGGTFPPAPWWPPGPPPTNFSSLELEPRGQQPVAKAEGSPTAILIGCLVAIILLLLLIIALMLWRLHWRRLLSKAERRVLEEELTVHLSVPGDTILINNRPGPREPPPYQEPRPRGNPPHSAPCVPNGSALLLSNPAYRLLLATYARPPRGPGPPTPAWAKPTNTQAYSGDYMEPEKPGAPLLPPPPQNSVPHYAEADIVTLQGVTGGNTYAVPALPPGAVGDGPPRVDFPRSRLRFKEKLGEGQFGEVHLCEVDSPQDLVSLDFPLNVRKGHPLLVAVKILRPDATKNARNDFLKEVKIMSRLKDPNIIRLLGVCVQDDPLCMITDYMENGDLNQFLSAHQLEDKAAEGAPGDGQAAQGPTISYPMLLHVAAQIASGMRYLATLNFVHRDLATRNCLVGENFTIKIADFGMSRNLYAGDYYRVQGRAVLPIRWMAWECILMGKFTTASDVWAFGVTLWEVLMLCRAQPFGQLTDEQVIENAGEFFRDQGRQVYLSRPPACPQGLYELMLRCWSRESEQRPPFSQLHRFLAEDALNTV

Assay [2] deals with T1, DDR1 kinase. Put plainly: Evaluation of DDR1 kinase inhibition (LANCE Ultra TR-FRET kinase assay). It counts as biochemical. Also on record: purchased Carna Biosciences 08-113. Particulars: DDR1 protein 0.5 nM, LANCE Ultra ULight-poly GAT substrate, 2 hours at room temperature, duplicate; read-out: DDR-1 IC50.
Target sequence in this assay (Q08345 19-876 isoform Q08345-2 limits assumed): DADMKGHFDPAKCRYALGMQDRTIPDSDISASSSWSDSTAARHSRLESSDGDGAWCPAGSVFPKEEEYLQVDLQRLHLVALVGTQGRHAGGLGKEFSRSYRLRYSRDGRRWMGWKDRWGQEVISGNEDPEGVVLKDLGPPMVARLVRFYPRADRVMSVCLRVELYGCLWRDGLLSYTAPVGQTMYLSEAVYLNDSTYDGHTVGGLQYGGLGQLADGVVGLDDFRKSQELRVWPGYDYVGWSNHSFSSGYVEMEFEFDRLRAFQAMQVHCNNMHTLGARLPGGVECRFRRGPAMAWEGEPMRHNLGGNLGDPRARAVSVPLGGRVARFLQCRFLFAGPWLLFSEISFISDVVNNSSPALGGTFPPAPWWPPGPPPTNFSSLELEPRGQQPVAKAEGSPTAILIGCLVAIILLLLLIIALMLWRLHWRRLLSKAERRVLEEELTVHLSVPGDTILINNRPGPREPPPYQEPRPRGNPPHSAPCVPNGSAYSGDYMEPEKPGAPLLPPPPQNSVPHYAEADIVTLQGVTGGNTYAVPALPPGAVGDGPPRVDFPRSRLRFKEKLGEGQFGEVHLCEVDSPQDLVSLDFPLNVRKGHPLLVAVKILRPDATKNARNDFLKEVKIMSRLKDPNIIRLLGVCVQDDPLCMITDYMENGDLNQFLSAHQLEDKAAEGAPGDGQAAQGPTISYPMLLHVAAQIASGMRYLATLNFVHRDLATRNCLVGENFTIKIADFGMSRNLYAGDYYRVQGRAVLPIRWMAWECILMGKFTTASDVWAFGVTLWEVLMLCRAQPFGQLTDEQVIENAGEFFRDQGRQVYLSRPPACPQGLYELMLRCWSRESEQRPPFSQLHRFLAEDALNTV

Counter-ions that a name gives are not always drawn.

In the case of `O=C(Cn1nc(C2CN(C(=O)c3ccnc(NC4CC4)c3)C2)c2c(Cl)c(F)ccc21)NCC(F)(F)F` [Compound E-1, 2-(4-chloro-3-{1-[2-(cycloropylamino)pyridine-4-carbonyl]azetidin-3-yl}-5-fluoro-1H-indazol-1-yl)-N-(2,2,2-trifluoroethyl)acetamide hydrochloride], the IC50 worked out at 78 nM in assay [1] and 0.4 nM in assay [2].
On the same counts, the results for `CN(CC(F)(F)F)C(=O)Cn1nc(C2CN(C(=O)c3ccnc(N)n3)C2)c2cc(Cl)ccc21` [Compound E-4, 2-{3-[1-(2-aminopyrimidine-4-carbonyl)azetidin-3-yl]-5-chloro-1H-indazol-1-yl}-N-methyl-N-(2,2,2-trifluoroethyl)acetamide] are 55 nM and 2 nM.
On the same counts, the results for `Cc1c(C(=O)N2CC(c3nn(CC(=O)N4CCO[C@@H](C(F)(F)F)C4)c4ccccc34)C2)ccnc1N` [Compound E-8, 2-{3-[1-(2-amino-3-methylpyridine-4-carbonyl)azetidin-3-yl]-1H-indazol-1-yl}-1-[(2R)-2-(trifluoromethyl)morpholin-4-yl]ethan-1-one] are 230 nM and 5.2 nM.
On to `Nc1cc(C(=O)N2CC(c3cn(CC(=O)N4CCC[C@H]4C(F)(F)F)c4ccccc34)C2)ccn1` [Compound E-11, 2-{3-[1-(2-aminopyridine-4-carbonyl)azetidin-3-yl]-1H-indol-1-yl}-1-[(2S)-2-(trifluoromethyl)pyrrolidin-1-yl]ethan-1-one], for which the IC50 in assay [1] is 110 nM; in assay [2] it was 6.1 nM.
Regarding `Cc1ccc2c(n1)c(C1CN(C(=O)c3ccnc(N)c3)C1)nn2CC(=O)N1CCC[C@H]1C(F)(F)F` [Compound E-12, 2-{3-[1-(2-aminopyridine-4-carbonyl)azetidin-3-yl]-5-methyl-1H-pyrazolo[4,3-b]pyridin-1-yl}-1-[(2S)-2-(trifluoromethyl)pyrrolidin-1-yl]ethan-1-one], the IC50 in assay [1] stood at 330 nM; in assay [2], 7.5 nM.
Take `Nc1cc(C(=O)N2CC(c3nn(CC(=O)N4CCC[C@H]4C(F)(F)F)c4ccncc34)C2)ccn1` [Compound E-13, 2-{3-[1-(2-aminopyridine-4-carbonyl)azetidin-3-yl]-1H-pyrazolo[4,3-c]pyridin-1-yl]-1-[(2S)-2-(trifluoromethyl)pyrrolidin-1-yl]ethan-1-one hydrochloride]: the IC50 in assay [1] was found to be 1200 nM; in assay [2] it was 47 nM.
On the same counts, the results for `Cc1ccnc2c1c(C1CN(C(=O)c3ccnc(N)c3)C1)nn2CC(=O)N1CCC[C@H]1C(F)(F)F` [Compound E-15, 2-{3-[1-(2-aminopyridine-4-carbonyl)azetidin-3-yl]-4-methyl-1H-pyrazolo[3,4-b]pyridin-1-yl}-1-[(2S)-2-(trifluoromethyl)pyrrolidin-1-yl]ethan-1-one] are 2600 nM and 210 nM.
On the same counts, the results for `Nc1cc(C(=O)N2CC(c3nn(CC(=O)N4CCC[C@H]4C(F)(F)F)c4cc(F)cc(F)c34)C2)cnn1` [Compound E-16, 2-{3-[1-(6-aminopyridazine-4-carbonyl)azetidin-3-yl]-4,6-difluoro-1H-indazol-1-yl)-1-[(2S)-2-(trifluoromethyl)pyrrolidin-1-yl]ethan-1-one] are 720 nM and 15 nM.
On the same counts, the results for `Nc1cc(C(=O)N2CC(c3nn(Cc4nc(C(F)(F)F)no4)c4ccccc34)C2)c(F)cn1` [Compound E-18, 5-fluoro-4-[3-(1-{[3-(trifluoromethyl)-1,2,4-oxadiazol-5-yl]methyl}-1H-indazol-3-yl)azetidine-1-carbonyl]pyridin-2-amine] are 26 nM and 6.9 nM.
`Nc1cc(C(=O)N2CC(c3nn(Cc4cn(CC5CC(F)(F)C5)nn4)c4cccc(F)c34)C2)ccn1` [Compound E-19, 4-{3-[1-({1-[(3,3-difluorocyclobutyl)methyl]-1H-1,2,3-triazol-4-yl}methyl)-4-fluoro-1H-indazol-3-yl]azetidine-1-carbonyl}pyridin-2-amine hydrochloride]: the figures for the IC50 in assay [1] and in assay [2] were 84 nM and 56 nM, respectively.
On to `CN(CC(F)(F)F)C(=O)Cn1nc(C2CN(C(=O)c3nc(N)ncc3F)C2)c2cc(Cl)ccc21` [Compound E-21, 2-{3-[1-(2-amino-5-fluoropyrimidine-4-carbonyl)azetidin-3-yl]-5-chloro-1H-indazol-1-yl}-N-methyl-N-(2,2,2-trifluoroethyl)acetamide], for which the IC50 in assay [1] was determined as 140 nM; in assay [2] it was 1.5 nM.
In the case of `Nc1ncc(F)c(C(=O)N2CC(c3nn(CC(=O)N4CCC[C@H]4C(F)(F)F)c4ccccc34)C2)n1` [Compound E-22, 2-{3-[1-(2-amino-5-fluoropyrimidine-4-carbonyl)azetidin-3-yl]-1H-indazol-1-yl}-1-[(2S)-2-(trifluoromethyl)pyrrolidin-1-yl]ethan-1-one], the IC50 in assay [1] was 18 nM; in assay [2], 5.6 nM.
For the compound `O=C(Cn1nc(C2CN(C(=O)c3ccnc(NC4CC4)c3)C2)c2c(F)cc(F)cc21)NCC(F)(F)F` [Compound E-30, 2-(3-{1-[2-(cyclopropylamino)pyridine-4-carbonyl]azetidin-3-yl}-4,6-difluoro-1H-indazol-1-yl)-N-(2,2,2-trifluoroethyl)acetamide hydrochloride], the IC50 in assay [1] came to 74 nM; in assay [2] it was 4.1 nM.
Turning to `O=C(Cn1nc(C2CN(C(=O)c3cc(NC4CC4)ncn3)C2)c2c(F)cc(F)cc21)NCC(F)(F)F` [Compound E-31, 2-(3-{1-[6-(cyclopropylamino)pyrimidine-4-carbonyl]azetidin-3-yl}-4,6-difluoro-1H-indazol-1-yl)-N-(2,2,2-trifluoroethyl)acetamide], the IC50 worked out at 690 nM in assay [1] and 21 nM in assay [2].
In the case of `Nc1cc(C(=O)N2CC(c3nn(Cc4cn(Cc5ccccc5)nn4)c4cccc(F)c34)C2)ccn1` [Compound E-35, 4-(3-{1-[(1-benzyl-1H-1,2,3-triazol-4-yl)methyl]-4-fluoro-1H-indazol-3-yl}azetidine-1-carbonyl)pyridin-2-amine hydrochloride], the figures for the IC50 in assay [1] and in assay [2] were 2000 nM and 31 nM, respectively.
Turning to `Nc1nccc(C(=O)N2CC(c3nn(CC(=O)N4CCC[C@H]4C(F)(F)F)c4cc(F)ccc34)C2)n1` [Compound E-286, 2-{3-[1-(2-aminopyrimidine-4-carbonyl)azetidin-3-yl]-6-fluoro-1H-indazol-1-yl}-1-[(2S)-2-(trifluoromethyl)pyrrolidin-1-yl]ethan-1-one], the IC50 in assay [2] turned out to be 5 nM.
On the same count and under the same terms, as for `CN(CC(F)(F)F)C(=O)Cn1nc(C2CN(C(=O)c3ccnc(N)n3)C2)c2c(Cl)c(F)ccc21` [Compound E-287, 2-{3-(1-(2-aminopyrimidine-4-carbonyl)azetidin-3-yl]-4-chloro-5-fluoro-1H-indazol-1-yl}-N-methyl-N-(2,2,2-trifluoroethyl)acetamide], the figure is 7.8 nM; as for `Cc1ccc2c(c1)c(C1CN(C(=O)c3ccnc(N)n3)C1)nn2CC(=O)N(C)CC(F)(F)F` [Compound E-288, 2-{3-[1-(2-aminopyrimidine-4-carbonyl)azetidin-3-yl]-5-methyl-1H-indazol-1-yl}-N-methyl-N-(2,2,2-trifluoroethyl)acetamide], 14 nM; as for `CN(CC(F)(F)F)C(=O)Cn1nc(C2CN(C(=O)c3ccnc(N)n3)C2)c2c(F)cc(F)cc21` [Compound E-289, 2-{3-[1-(2-aminopyrimidine-4-carbonyl)azetidin-3-yl]-4,6-difluoro-1H-indazol-1-yl)-N-methyl-N-(2,2,2-trifluoroethyl)acetamide], 45 nM.
On to `Nc1nccc(C(=O)N2CC(c3nn(CC(=O)N4CCC[C@H]4C(F)(F)F)c4ccc(Cl)cc34)C2)n1` [Compound E-290, 2-{3-[1-(2-aminopyrimidine-4-carbonyl)azetidin-3-yl]-5-chloro-1H-indazol-1-yl}-1-[(28)-2-(trifluoromethyl)pyrrolidin-1-yl]ethan-1-one], for which the IC50 in assay [2] worked out at 1.6 nM.
In the case of `COc1ccc2c(c1)c(C1CN(C(=O)c3cc(N)ncc3F)C1)nn2CC(=O)N1CCC[C@H]1C(F)(F)F` [Compound E-291, 2-(3-(1-(2-amino-5-fluoropyridine-4-carbonyl)azetidin-3-yl]-5-methoxy-1H-indazol-1-yl}·1-[(2S)-2-(trifluoromethyl)pyrrolidin-1-yl]ethan-1-one], in assay [2], the IC50 stood at 2.6 nM.
On the same count and under the same terms, then `Cc1ccc2c(c1)c(C1CN(C(=O)c3ccnc(N)n3)C1)nn2CC(=O)N1CCC[C@H]1C(F)(F)F` [Compound E-292, 2-{3-[1-(2-aminopyrimidine-4-carbonyl)azetidin-3-yl]-5-methyl-1H-indazol-1-yl]-1-[(2S)-2-(trifluoromethyl)pyrrolidin-1-yl]ethan-1-one], with 2.3 nM; and `CN(CC(F)(F)F)C(=O)Cn1nc(C2CN(C(=O)c3ccnc(N)n3)C2)c2cc(F)ccc21` [Compound E-293, 2-{3-[1-(2-aminopyrimidine-4-carbonyl)azetidin-3-yl]-5-fluoro-1H-indazol-1-yl]-N-methyl-N-(2,2,2-trifluoroethyl)acetamide], with 26 nM; and `CC1(C)CCc2c(c(C3CN(C(=O)c4ccnc(N)n4)C3)nn2CC(=O)N2CCC[C@H]2C(F)(F)F)C1` [Compound E-295, 2-{3-[1-(2-aminopyrimidine-4-carbonyl)azetidin-3-yl]-5,5-dimethyl-4,5,6,7-tetrahydro-1H-indazol-1-yl}-1-[(2S)-2-(trifluoromethyl)pyrrolidin-1-yl]ethan-1-one], with 160 nM.
